Laboratory results published in patent US5731344A, “Bishispidine compounds, processes for their production and pharmaceutical agents containing these compounds” (Boehringer Mannheim GmbH, priority 1993, dated 1998).

System: Lysozyme
Experiment: Test for the inhibitory activity on the formation of AGE (lysozyme dimer formation, SDS gel electrophoresis, densitometry)
Assay type: biochemical
Settings: AGE-inhibitory action, lysozyme 20 mg/ml, pH 7.4, 200 mmol/l glucose or xylose, 24 to 120 hours
Experimental: Test for the inhibitory activity on the formation of AGE
Lysozyme is dissolved at a final concentration of 20 mg/ml in 100 mmol/l potassium phosphate buffer, pH 7.4. 5 mmol/l sodium azide is added as a preservative. The formation of AGE is initiated by the addition of 200 mmol/l glucose or xylose. Test substances or the reference substance aminoguanidine are added at different concentrations in order to quantify an inhibitory activity on AGE formation. Solvent controls as well as control mixes are also run in the presence of 200 mmol/l sorbitol or xylite for correction purposes. The incubation period of the reaction mixtures is between 24 and 120 hours depending on the sugar used and is selected in such a way that mainly dimers are formed and other higher molecular oligomerization products are formed only to a slight extent.
The samples are prepared and SDS gel electrophoresis is carried out according to literature references. Summarized briefly the samples are diluted with the 4-fold amount of sample buffer (50 mmol/l Tris^* acetate, pH 7.5, 1% SDS, 5 mmol/l dithiothreitol) and heated for 3 minutes to 95° C. Aliquots are applied to 8-18% gradient-SDS gels. In order to determine the molecular weight molecular weight markers are also used in the range 14-340 kD. The separation according to molecular weight is achieved under the following operating conditions: voltage: 600 V, current intensity: 50 mA, power: 30 W, run period: ~60 minutes.
After the gel electrophoresis the gels are fixed according to standard methods and stained with Coomassie Blue. After destaining overnight and drying, the gels are measured densitometrically (Pharmacia Ultra Scan XL using GelScan XL software).
In order to determine the threshold concentration and the IC50 values of the AGE-inhibitory action of the test substances, the dimer formation is plotted semi-logarithmically against the test concentration of the substance and the above-mentioned parameters are calculated.

SMILES	IC50	Threshold concentration
O=c1oc(/C=C/c2ccc(O)c(O)c2)cc(O)c1C(c1ccc(Cl)cc1)c1c(O)cc(/C=C/c2ccc(O)c(O)c2)oc1=O [Example 1, 3,3'-(4-Chlorobenzylidene)bis[6-[2-(3,4-dihydroxyphenyl)vinyl]-4-hydroxy-2H-pyran-2-one]]	4 µM	> 1 µmol/L
COc1ccc(C(c2c(O)cc(/C=C/c3ccc(O)c(O)c3)oc2=O)c2c(O)cc(/C=C/c3ccc(O)c(O)c3)oc2=O)cc1O [Example 3, 3,3'-(3-Hydroxy-4-methoxybenzylidene)bis[6-[2-(3,4-dihydroxyphenyl)vinyl]-4-hydroxy-2H-pyran-2-one]]	2 µM	> 1 µmol/L
CC(C)(C)c1cc(C(c2c(O)cc(/C=C/c3ccc(O)c(O)c3)oc2=O)c2c(O)cc(/C=C/c3ccc(O)c(O)c3)oc2=O)cc(C(C)(C)C)c1O [Example 4, 3,3'-(4-Hydroxy-3,5-(bis-1,1-dimethylethyl)benzylidene]bis[6-[2-(3,4-dihydroxyphenyl)vinyl]-4-hydroxy-2H-pyran-2-one]]	2 µM	> 1 µmol/L
COc1ccc(C(c2c(O)cc(/C=C/c3ccc(O)c(O)c3)oc2=O)c2c(O)cc(/C=C/c3ccc(O)c(O)c3)oc2=O)cc1 [Example 5]	2 µM	> 1 µmol/L
COc1ccc(C(c2c(O)cc(/C=C/c3ccc(O)c(O)c3)oc2=O)c2c(O)cc(/C=C/c3ccc(O)c(O)c3)oc2=O)cc1OC [Example 6]	5 µM	> 1 µmol/L
O=c1oc(/C=C/c2ccc(O)c(O)c2)cc(O)c1C(c1ccc(O)c(O)c1)c1c(O)cc(/C=C/c2ccc(O)c(O)c2)oc1=O [Example 7]	4 µM	2 µmol/L
N#Cc1ccc(C(c2c(O)cc(/C=C/c3ccc(O)c(O)c3)oc2=O)c2c(O)cc(/C=C/c3ccc(O)c(O)c3)oc2=O)cc1 [Example 8]	22 µM	10 µmol/L
N=C(N)NN [aminoguanidine, reference compound]	4500 µM	500 µmol/L
